From patent US20080044348A1 (priority 2006, published 2008) come the findings set out here.

This experiment has as its system HIF1α signaling. The experiment is classed as cell-based.
Consider `COc1cc2ncnc(Nc3ccc(F)c(Cl)c3)c2cc1OCCCN1CCOCC1` [Iressa], for which the “effect on CoCl2-induced HIF1α signaling” value is reported as “suppressed CoCl2-induced HIF1α signaling”.

`COc1cc(C[C@H]2C(=O)OC[C@@H]2Cc2ccc(OC)c(OC)c2)ccc1O` [Arctigenin]: the “effect on CoCl2-induced HIF1α signaling” value was “suppressed CoCl2-induced HIF1α signaling”.

As for `C[S+]([O-])c1ccc(-c2nc(-c3ccncc3)c(-c3ccc(F)cc3)[nH]2)cc1` (centres unmarked) [SB 203580], the “effect on CoCl2-induced HIF1α signaling” value is “no significant effect on HIF1α signaling”.

For `CCCCCCCCCCC[C@@H](C[C@@H]1OC(=O)[C@H]1CCCCCC)OC(=O)[C@H](CC(C)C)NC=O` [Orlistat], the “effect on CoCl2-induced HIF1α signaling” value is “suppressed CoCl2-induced HIF1α signaling”.

For `COc1ccc(C[C@H]2NC[C@H](O)[C@H]2OC(C)=O)cc1` [Anisomycin], the “effect on CoCl2-induced HIF1α signaling” value is on record as “suppressed CoCl2-induced HIF1α signaling”.

Consider PD 168393, for which the “effect on CoCl2-induced HIF1α signaling” value is “no significant effect on HIF1α signaling”.

For `[Cl][Co][Cl]` [Cobalt chloride], the “time to induce hypoxia in the entire spheroid” value was 6 to 8 h.

As to `C#Cc1cccc(Nc2ncnc3cc(OCCOC)c(OCCOC)cc23)c1` [Tarceva], the “effect on CoCl2-induced HIF1α signaling” value is reported as “suppressed CoCl2-induced HIF1α signaling”.

Consider `Cc1ccc(NC(=O)c2ccc(CN3CCN(C)CC3)cc2)cc1Nc1nccc(-c2cccnc2)n1` [Gleevec], for which the “effect on CoCl2-induced HIF1α signaling” value is on record as “no significant effect on HIF1α signaling”.

For `COc1cc2c(cc1OC)[C@@H]1C(=O)c3ccc4c(c3O[C@@H]1CO2)C=CC(C)(C)O4` [Deguelin], the “effect on CoCl2-induced HIF1α signaling” value is “no significant effect on HIF1α signaling”.

Consider `Nc1ccn([C@@H]2O[C@H](CO)[C@@H](O)C2(F)F)c(=O)n1` [Gemzar], for which the “effect on CoCl2-induced HIF1α signaling” value is given as “suppressed CoCl2-induced HIF1α signaling”.
